Columns and labels:
NRG1 = assay: Western blot of NRG1 level in treated A172 cells; assay type: cell-based, human
Description: (§1) A172 cells were cultured in DMEM supplemented with 10% heat-inactivated fetal bovine serum (FBS; Hyclone, Logan, Utah), 100 U/mL penicillin and 0.1 mg/mL streptomycin (Invitrogen, Carlsbad, Calif.) at 37° C. in a humidified incubator with 5% CO2 and 95% air.
(§2) The cells were lysed and the lysates were suspended in a RIPA buffer (50 mM HEPES (pH 7.4), 4 mM EDTA, 150 mM NaCl, 10 mM Na4P2O7, 100 mM NaF, 2 mM Na3VO4, 1% Triton X-100, 0.25% sodium deoxycholate, 50 mM 4-(2-aminoethyl) benzene sulfonylfluoride, 50 μg/mL leupeptin, and 20 μg/mL aprotinin). For each cell sample, 30˜50 μg of total protein, along with a molecular weight ladder were resolved on 8% a bis-tris polyacrylamide NuPAGE gels (90˜130 V, 2 hrs) via electrophoresis and then transferred onto a nitrocellulose membrane (Invitrogen) (550 mA, 90 min) The membrane was first blocked using phosphate buffered saline (PBS) with 5% dry skimmed milk powder for 1 hr at room temperature and then incubated at 4° C. in the presence of mouse anti-serotonin transporter antibody (MAB1564; Chemicon), rabbit anti-norepinephrine transporter antibody (AB2234; Millipore, Bedford, Mass.), or anti-β-actin antibody (MAB1501, Chemicon) overnight. The antibody was diluted in phosphate buffered saline containing 0.1% Tween-20 (PBST). Afterwards, the membrane was washed with PBST and then incubated with a peroxidase-conjugated secondary antibody in PBST. After being washed for several times, the membrane was subjected to the enhanced chemiluminescence (ECL) analysis, following the method described in Yeh et al., 2009, Glia, 57:454-464, using an ECL kit purchased from Santa Cruz Biotechnology and Kodak X-OMAT LS film (Eastman Kodak, Rochester, N.Y.).
(§3) A172 cells were cultured in the presence of serotonin at a concentration of 1, 3, 10, 30, or 100 μM. The levels of both NGR1 and ErbB4, the major receptor of NRG1 in the brain, in the treated A172 cells were examined by Western blot as described above at various time points (e.g., 2 hr, 4 hr, 8 hr, 12 hr, and 24 hr post treatment), using rabbit anti-NRG1 precursor antibody no. […]

ErbB4 = assay: Western blot of ErbB4 level in treated A172 cells; assay type: cell-based, human
Description: as §1, §2, §3

[1] = system: wild-type and NRG1+/- mice; assay: Forced swimming test; assay type: in vivo, mouse; settings: for immobility period: desipramine 20 mg/kg i.p.; for effect on immobility time: i.p., desipramine 20, imipramine 15, venlafaxine 15 mg/kg
Source text: (§4) Transmembrane (TM)-domain NRG1 heterozygous mutant mice (129S5-Nrg1tm1Lex, ID#011745-UCD) were obtained from Mutant Mouse Regional Resource Centers (MMRRC) and backcrossed with B6 mice. NRG1^+/− mice and their wild-type littermates were generated by in-house mating of male NRG1^+/− mice and female C57BL/6 mice. Heterozygous crossing has been practiced for at least 7 generations to obtain animals with a homogeneous C57BL/6 genetic background except for the TM-mutated nrg1 gene locus. Mouse genotypes were determined by PCR analysis. Animals were housed (five per cage) under a 12-hr light/dark cycle (lights on from 8:00 a.m. to 8:00 p.m.) at constant room temperature and relative humidity with food and water available ad libitum. All experiments were started at 10-week-old period at weight of 25-30 g.
(§5) Before undergoing any behavioral test, animals were handled by an investigator for at least 3 days so that they became familiar with the investigator. The animals had been placed under laboratory conditions for at least 1 hr before each behavioral test.
To perform the forced swimming test, each mouse, administered via intraperitoneal injection with either one of the above-listed serotonin transporter inhibitors or saline 30-60 minutes ago, was placed individually in a clear glass cylinder (height, 25 cm; diameter, 15 cm) containing water (depth: 15 cm; temperature: 26±1° C.). Its behavior was recorded by a video camera during a 6-min testing period. The duration of immobility was measured during the last 4 min after a 2-min habituation period.

[2] = system: wild-type and NRG1+/- mice; assay: Social withdrawal behavior evaluation; assay type: in vivo, mouse; design: key to social approach change score: score: +1/s social side, 0 center, -1 nonsocial; presence minus absence; settings: i.p. 30 min before testing; for social approach change score: NRG1+/- mice; for social approach change score, effect: wild-type mice, same doses
Source text: as §4, §5
The social withdrawal behavior evaluation study was performed following the method described in Sankoorikal et al., Biol. Psychiatry 59:415-423, 2006 with modifications. Briefly, this study was carried out in a behavioral testing apparatus containing two end chambers and one middle chamber. A clear Plexiglas cylinder was placed in each of the two end chambers, one being designated as “social side” (where stimulus to mice was introduced through the cylinder) and the other being designated as the “nonsocial side.” (where the cylinder is empty). Multiple holes (0.5 in diameter each) are evenly spaced over the surface of the two cylinders.
Each of the mice to be tested was housed individually for 3 days before the social withdrawal behavior evaluation study was performed. During the study, the response (i.e., social approach) of a test mouse to a novel (unfamiliar) “stimulus” was observed within 5 minutes after the mouse was exposed to the stimulus. A “social approach score” was calculated for each mouse according to the time it spent in each of the three chambers as follows: +1 for each second spent in the social side chamber, 0 for each second spent in the center chamber, and −1 for each second spent in the nonsocial side chamber. The “social approach change score” was calculated by subtracting the value of “social approach score in the absence of stimulus mouse” condition from the value for “presence of stimulus mouse” condition.

[3] = NRG1+/- mice, much greater than in wild-type
[4] = male (FIG. 2 panel A), desipramine 20, imipramine 15, fluvoxamine 15, venlafaxine 15, duloxetine 20, escitalopram 30 mg/kg, saline −37.7±28.8
[5] = female, duloxetine 20, escitalopram 30 mg/kg, saline −60.4±40.2

Structure (SMILES)	effect on immobility time [1, 3]	effect on immobility time ([1]; wild-type mice)	social approach change score [2, 4]	social approach change score, effect [2]	other results
CCCN(CCC)C1CCc2cccc(O)c2C1 (centres unmarked) [8-OH DPAT, 8-hydroxy-N,N-dipropyl-2-aminotetralin]	–	–	–	–	level of NRG1 compared with untreated A172 cells (maximal effect) (NRG1; 0.3 μM, 4 hours): 1.44±0.12 fold; level of ErbB4 compared with untreated A172 cells (maximal effect) (ErbB4; 0.3 μM, 4 hours): 1.44±0.10 fold
COc1cc(CC(C)N)c(OC)cc1I (centres unmarked) [DOI]	–	–	–	–	effect on level of NRG1 (NRG1; 0.1-3 μM, 4 hours): did not show increased levels; effect on level of ErbB4 (ErbB4; 0.1-3 μM, 4 hours): did not show increased levels
CNCCCN1c2ccccc2CCc2ccccc21 [desipramine]	decreased	only slightly affected	122.7±31.0	not significantly different	immobility ([1]; C57BL/6 wild-type mice, desipramine 50 mg/kg, saline 101.4±16.4 sec): 58.6 ± 11.0 s; immobility period ([1]; NRG1+/- mice, control NRG1+/- = 122.8%, p<0.01): 36.5±18.0%; immobility period ([1]; wild-type mice, control wild-type = 100.0%, p=0.24): 65.7±24.5%
CNCC[C@H](Oc1cccc2ccccc12)c1cccs1 [duloxetine]	–	–	78.7±28.5	not significantly different	social approach change score [2, 5]: 103.7±30.8
CN(C)CCC[C@@]1(c2ccc(F)cc2)OCc2cc(C#N)ccc21 [escitalopram]	–	–	175.3±60.4	not significantly different	social approach change score [2, 5]: 110.1±41.9
COCCCC/C(=N\OCCN)c1ccc(C(F)(F)F)cc1 [fluvoxamine]	–	–	98.6±15.9	not significantly different	–
CN(C)CCCN1c2ccccc2CCc2ccccc21 [imipramine]	decreased	only slightly affected	138.7±18.8	not significantly different	–
NCCc1c[nH]c2ccc(O)cc12 [serotonin]	–	–	–	–	level of NRG1 compared to saline control (NRG1; serotonin 10 μM, p<0.05): 1.4±0.06 fold; level of ErbB4 compared to saline control (ErbB4; serotonin 10 μM, p<0.05): 1.7±0.1 fold
COc1ccc(C(CN(C)C)C2(O)CCCCC2)cc1 (centres unmarked) [venlafaxine]	decreased	only slightly affected	61.9±24.7	not significantly different	–

Reference: patent publication US20110028453A1, “Treating Negative Symptoms of Schizophrenia Associated with Defective Neuregulin 1” (priority 2009, published 2011)
